Values of other authors, collected in patent US20210299070A1, “METHODS OF TREATING CREATINE T[…]” (Jnana Therapeutics, Inc., priority 2018, published 2021).

Key:
[1] = patients with GAMT or AGAT deficiency; oral supplements
[2] = patients with CID (creatine transporter deficiency); oral supplements

In the case of `CN(CC(=O)O)C(=N)N.O` [creatine monohydrate], the clinical symptoms [1] is listed as “clinical symptoms improved” and the response to treatment [2] is listed as “did not respond to treatment”.
